The test system of assay [1] is NGF specific surface receptor on PC12 cells. As to the kind of experiment: Displacement of 125I-NGF binding to PC12 cells. The following applies: 0.1 nM 125I-NGF. On the procedure:
The ability of selected compounds to displace the binding of NGF to specific surface receptor was evaluated through the classic binding techniques of iodinated ligand.
PC12 cells were detached from tissue flasks with PBS-EDTA, washed with HKR medium (10 mM Hepes, 125 mM NaCl, 4.8 mM KCl, 1.3 mM CaCl2, 1.2 mM MgSO4, 1.2 mM KH2PO4, 1 g/l glucose, 1 g/l BSA) and incubated in triplicate in HKR medium with 0.1 nM ^125I-NGF in the presence or absence of variable concentrations of the compounds to be assayed or of hrNGF as internal standard. Displacement curve was obtained by analyzing the resultant cell bound radioactivity in the presence of the compounds or of hrNGF with adequate software (Graphit 4).

Assay [2] has as its system VGF. In words: Induction of VGF production by PC12 cells (western blot). The following applies: FIG. 3. The format is cell-based. As to the method:
The ability of 3-aza-bicyclo(3.2.1)octanes of formula (I) and their dimeric forms of formula (II) and (III) with substitution reported in Table 1-4 was tested also as ability to induce VGF production by PC12 cells. […] Cells were lysed in 0.25% NP-40 in PBS supplemented with 1 mM PMSF (phenyl-methyl) and 1 mM leupeptin and protein concentration was measured in each sample by Bradford assay. Equal amounts of proteins (30 μg) were loaded in 8% SDS-polyacrilamide gel, electrophoresed, blotted onto nitrocellulose membrane and stained with monoclonal antibodies anti-VGF followed by peroxidase-conjugated anti-mouse IgG. Reaction was visualized by Enhanced Chemiluminiscent Reagent (ECL, Amersham) following the manufacturer instruction.
VGF is induced by the selected compounds as well as by hrNGF.

Assay [3] has as its target T1, Trk-A (Rattus norvegicus, UniProt P35739).
T1 construct: endogenous in cells; host or cells: PC12 cells
In words: Trk-A autophosphorylation in PC12 cells. In kind it is cell-based. The following applies: 10 μM compound, 30 min, FIG. 5. As to the method:
To evaluate the ability of the compounds 3-aza-bicyclo(3.2.1)octanes of formula (I) and their dimeric forms of formula (II) and (III) reported in Table 14 to induce Trk-A autophosphorylation, PC12 cells were cultured in medium supplemented with 5% FBS for 48 hours, washed and equilibrated in serum-free medium for 2 hours. 2.5×10^6 cells were then stimulated with 10 μM of selected compounds for 30 min or with 10 nM hrNGF as positive control. Cells were then lysed with 0.5% Triton-X100 in PBS supplemented with protease inhibitors (PMSF, aprotinin, pepstatin, leupeptin) and phosphatase inhibitors. Protein concentrations in each sample was evaluated by Bradford assay and equal amounts (50 μg) of proteins were loaded onto SDS-polyacrilamide gel, electrophoresed and blotted onto nitrocellulose membrane. Membranes was stained with rabbit anti-(Tyr 490 and Tyr 674/675) phosphorylated Trk-A (Cell Signaling Technology) used at the final dilution of 1:1000. After washing, membranes were stained with HRP-conjugated anti-rabbit IgG and the reaction was visualised by using ECL reagents following manufacturing instructions.

Read-outs that look alike come from different tables or passages of the source.

T1 sequence (P35739 33-799): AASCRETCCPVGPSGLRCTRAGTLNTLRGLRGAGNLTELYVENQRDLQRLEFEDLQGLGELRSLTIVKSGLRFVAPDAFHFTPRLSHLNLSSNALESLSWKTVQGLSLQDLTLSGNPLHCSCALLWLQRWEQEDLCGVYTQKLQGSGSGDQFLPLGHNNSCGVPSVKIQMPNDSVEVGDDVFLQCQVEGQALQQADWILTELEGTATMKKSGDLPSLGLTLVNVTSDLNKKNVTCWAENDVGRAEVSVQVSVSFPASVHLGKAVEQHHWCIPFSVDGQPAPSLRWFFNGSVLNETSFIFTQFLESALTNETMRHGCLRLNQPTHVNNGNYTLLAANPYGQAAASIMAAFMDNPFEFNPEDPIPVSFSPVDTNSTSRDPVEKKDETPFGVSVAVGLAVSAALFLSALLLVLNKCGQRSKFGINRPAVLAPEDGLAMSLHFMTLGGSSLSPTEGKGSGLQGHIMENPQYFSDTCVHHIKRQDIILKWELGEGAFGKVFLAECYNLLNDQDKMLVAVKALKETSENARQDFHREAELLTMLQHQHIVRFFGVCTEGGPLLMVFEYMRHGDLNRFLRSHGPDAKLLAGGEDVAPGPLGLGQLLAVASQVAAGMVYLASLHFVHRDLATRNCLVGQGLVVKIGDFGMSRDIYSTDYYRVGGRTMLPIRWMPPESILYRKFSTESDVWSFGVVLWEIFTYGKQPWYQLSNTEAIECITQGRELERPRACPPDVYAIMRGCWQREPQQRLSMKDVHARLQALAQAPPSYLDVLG

`COC(=O)C1OC2OC1C(=O)N(Cc1ccccc1)C2Cc1ccccc1` (centres unmarked) [Compound 9]: in assay [1] (FIG. 4a, read-out: Kd (displacement curve, compound used as competitor)), the Kd stood at 165 nM. In addition, in assay [2] (10 μM compound), the VGF production induced entry is “induced”. Besides, the “induction of Trk-A autophosphorylation” value in assay [3] is on record as “able to induce Trk-A autophosphorylation”.

Regarding “hrNGF: human recombinant (hr)NGF used as internal standard”, in assay [1] (FIG. 4b, read-out: Kd (displacement curve, hrNGF as competitor)), the Kd is 0.114 nM. Further, the VGF production induced result in assay [2] (10 nM hrNGF) is “induced”.
